This is an account of results in patent publication US9718738B2 (priority 2014, dated 2017).

The subject of one assay is grain corn. The note with it: in vivo.
In assay [1] the test system is long white bunching onions. Conditions: in vivo.

With urea, the grain yield in the assay with grain corn amounted to 180.5 bu/acre. Besides, the “plant height after 6 weeks” value in assay [1] is on record as “performing poorer than no nitrogen fertilizer at all”.
